From US6770673B1, “Therapeutic uses of arglabin in combination with other chemotherapy agents” (priority 1997, dated 2004)

What was measured:
Worker's carcinosarcoma = assay: Inhibition of tumor growth in implanted tumors; type: in vivo, mice and rats
Sarcoma-45 = assay: Inhibition of tumor growth in implanted tumors; type: in vivo, rats
Geren's carcinosarcoma = assay: Inhibition of tumor growth in implanted tumors; type: in vivo, mice and rats
M-1 Sarcoma = assay: Inhibition of tumor growth in implanted tumors; type: in vivo, mice and rats
Pliss lymphosarcoma = assay: Inhibition of tumor growth in implanted tumors; type: in vivo, rats
[1] = test system: Alveolar Cancer of the liver; assay: Inhibition of tumor growth in implanted tumors; type: in vivo, mice and rats
Sarcoma-37 = assay: Inhibition of tumor growth in implanted tumors; type: in vivo, mice and rats; settings: dose 2 mg/kg
Leucemia P-388 = assay: Implanted leukemia, inhibition / survival; type: in vivo, mice and rats
[2] = test system: Pliss Lymphosarcoma resistant to leucoeffdine; assay: Inhibition of growth of resistant tumour strains; tumor disappearance; type: in vivo, rats; settings: leukofedin resistant Pliss' lymphosarcoma, collateral sensitivity
[3] = test system: Sarcoma-45 resistant to 5-fluorouracil; assay: Inhibition of growth of resistant tumour strains; type: in vivo, rats; settings: dose 50 mg/kg
PC-1 = assay: Inhibition of tumor growth in implanted tumors; type: in vivo, mice and rats; settings: dose 30 mg/kg
[4] = test system: Pliss Lymphosarcoma resistant to prospidine; assay: Inhibition of growth of resistant tumour strains; duration of life and metastasis; type: in vivo, rats; settings: dose 30 mg/kg

| Compound | Inhibition of Tumour Growth, % - Worker's carcinosarcoma (Worker's carcinosarcoma; dose 50 mg/kg) [%] | Inhibition of Tumour Growth, % - Sarcoma-45 (Sarcoma-45; dose 50 mg/kg) [%] | Inhibition of Tumour Growth, % - Geren's carcinosarcoma (Geren's carcinosarcoma; dose 50 mg/kg) [%] | Inhibition of Tumour Growth, % - Pliss lymphosarcoma (Pliss lymphosarcoma; dose 50 mg/kg) [%] | Inhibition of Tumour Growth, % - Alveolar Cancer of the liver ([1]; dose 50 mg/kg) [%] | Inhibition of Tumour Growth, % - Leucemia P-388 PALT (Leucemia P-388; dose 50 mg/kg) [%] | Inhibition of Tumour Strains Growth, % - Resistant Forms - Sarcoma-45 to 5-fluorouracil [3] [%] | Inhibition of Tumour Growth, % - Worker's carcinosarcoma (Worker's carcinosarcoma; dose 30 mg/kg) [%] | Inhibition of Tumour Growth, % - Sarcoma-45 (Sarcoma-45; dose 30 mg/kg) [%] | Inhibition of Tumour Growth, % - M-1 Sarcoma (M-1 Sarcoma; dose 30 mg/kg) [%] | Inhibition of Tumour Growth, % - Pliss lymphosarcoma (Pliss lymphosarcoma; dose 30 mg/kg) [%] | also measured |
| --- | --- | --- | --- | --- | --- | --- | --- | --- | --- | --- | --- | --- |
| COc1cc2c(c(OC)c1OC)-c1ccc(OC)c(=O)cc1[C@@H](NC(C)=O)CC2 [Colchicine, colchicine, reference compound] |  |  |  |  |  |  |  |  |  |  |  | Inhibition of Tumour Growth, % - Worker's carcinosarcoma (Worker's carcinosarcoma; dose 2 mg/kg): 30.1%; Inhibition of Tumour Growth, % - Sarcoma-45 (Sarcoma-45; dose 2 mg/kg): 23.4%; Inhibition of Tumour Growth, % - Geren's carcinosarcoma (Geren's carcinosarcoma; dose 2 mg/kg): 32.4%; Inhibition of Tumour Growth, % - M-1 Sarcoma (M-1 Sarcoma; dose 2 mg/kg): 14.9%; Inhibition of Tumour Growth, % - Pliss lymphosarcoma (Pliss lymphosarcoma; dose 2 mg/kg): 54.4%; Inhibition of Tumour Growth, % - Alveolar Cancer of the liver ([1]; dose 2 mg/kg): 29.1%; Inhibition of Tumour Growth, % - Sarcoma-37 (Sarcoma-37): 36.7%; Inhibition of Tumour Growth, % - Leucemia P-388 PALT (Leucemia P-388; dose 2 mg/kg): 31.2% |
| NC(Cc1ccc(N(CCCl)CCCl)cc1)C(=O)O (centres unmarked) [sarcolysin, reference compound] |  |  |  |  |  |  |  |  |  |  |  | rats with complete disappearance of the tumor [2]: 60% |
| CN(C)CC1C(=O)OC2C1CCC1(C)OC13CC1OC1(C)C23 (centres unmarked) [Dimethylaminoepoxyarglabin (15b), dimethylaminoepoxyarglabin] | 43.1 | 58.1 | 31.4 | 64.6 | 38.0 | 51.0 | 11.2 |  |  |  |  |  |
| CC1=CCC23OC2(C)CCC2C(CN(C)C)C(=O)OC2C13 (centres unmarked) [Dimethylaminoarglabin (14b), dimethylaminoarglabin] | 30.0 | 79.0 | 85.1 | 56.0 | 42.0 | 80.1 | 52.1 | 30.0 | 85.1 | 79.9 | 78.2 | Inhibition of Tumour Growth, % - PC-1 (PC-1): 62.1%; Inhibition of Tumour Strains Growth, % - Resistant Forms - Pliss Lymphosarcoma to prospidine [4]: 52.1% |
| CC1=CCC23OC2(C)CCC2C(C)C(=O)OC2C13 (centres unmarked) [11,13-dihydroarglabin (16), 11,13 dihydroarglabin] |  |  |  |  |  |  |  | 46.4 | 64.1 | 65.5 | 68.0 | Inhibition of Tumour Growth, % - Geren's carcinosarcoma (Geren's carcinosarcoma; dose 30 mg/kg): 84.4%; Inhibition of Tumour Growth, % - Alveolar Cancer of the liver ([1]; dose 30 mg/kg): 68.7% |
